For 81 compounds, RP-LC retention time results are on record in the METLIN SMRT retention time set (Domingo-Almenara et al. 2019).

This data set can be described thus: gradient 5% acetonitrile 3 min, to 50% in 2 min, to 85% in 15 min, held 3 min, 100 µL/min. Particulars: column: Zorbax Extend-C18 2.1 x 50 mm; eluents: water / acetonitrile, 0.1% formic acid. Put shortly: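 Each retention time is based on an adduct peak selected computationally and verified by manual inspection. Measurements used HPLC–quadrupole time-of-flight mass spectrometry in positive and negative ionization mode on mixtures of ~100 pure standards. Chromatography ran on a Zorbax Extend-C18 column (2.1 × 50 mm, 1.8 μm) at 100 μL/min with water and acetonitrile, each containing 0.1% formic acid, and dead and dwell volumes of 40 μL and 900 μL.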
The compound `COc1cc(OC)cc(C(=O)Nc2ccc(N3CCN(C4CCCC4)C3=O)nc2)c1` came in with an RP-LC retention time of 829 s.

For `COC(=O)C1=C(N)Oc2cc(C)n(CCN(C)C)c(=O)c2C1c1ccccc1Cl` (stereo unspecified), the RP-LC retention time is 624 s.

For the compound `CCOC(=O)c1c(NCc2ccccc2Cl)c2cccc(Cl)c2[nH]c1=O`, the RP-LC retention time stood at 867 s.

Regarding `CC1(C(=O)NCc2ccccc2)CN(S(=O)(=O)c2ccccc2)CC(=O)N1c1ccc(F)cc1` (stereo unspecified), the RP-LC retention time was determined as 914 s.

Take `CCCn1nc(CNC(=O)Cc2cccs2)c2ccccc21`: the RP-LC retention time worked out at 847 s.

Turning to `COC(=O)CNC(=O)N1CCCCCC1c1cccc(C)c1` (stereo unspecified), the RP-LC retention time was 840 s.

As to `Cn1nc(CNC(=O)c2ccccc2Br)c2ccccc21`, the RP-LC retention time worked out at 757 s.

`COc1ccc(Cl)cc1S(=O)(=O)NCc1cccnc1-c1cccc(C)c1` returned an RP-LC retention time of 771 s.

Compound `CN(Cc1cccn1C)C(=O)NC1CCCC1` showed an RP-LC retention time of 775 s.

In the case of `O=C(CC1CCN(C(=O)Nc2ccccc2Cl)CC1)N1CCCCC1`, the RP-LC retention time stood at 806 s.

On to `CCCCc1ccc(NC(=O)N2CCCC2c2nncn2C2CCCC2)cc1` (stereo unspecified), for which the RP-LC retention time came to 864 s.

`O=c1ccnc(Nc2ccc(Cl)cc2)[nH]1` yielded an RP-LC retention time of 701 s.

Regarding `Cc1ccccc1-n1c(=O)c2sccc2n(Cc2nc(-c3cccc(C(F)(F)F)c3)no2)c1=O`, the RP-LC retention time came out at 1100 s.

In turn, `CCCN1C(=O)CCc2cc(NS(=O)(=O)c3ccc(CC(C)C)cc3)ccc21` registered an RP-LC retention time of 1030 s.

Take `COc1ccc(-n2ccnc(NC(=O)Nc3cccc(F)c3)c2=O)cc1OC`: the RP-LC retention time is 882 s.

For `COCC(=O)N1CCCN(C2=NS(=O)(=O)C(c3ccc(Cl)cc3)=C2C)CC1`, the RP-LC retention time was determined as 723 s.

In the case of `CC(C)n1c(-c2cccc(C(=O)NCc3ccncc3)c2)nc2cccnc21`, the RP-LC retention time was 599 s.

In turn, `CC(=O)N1CCc2cc(N3CC(C(=O)Nc4ccccc4OC(F)(F)F)CC3=O)ccc21` (stereo unspecified) had an RP-LC retention time of 766 s.

Consider `O=C(NCC1CCCO1)C1CCN(C(=O)C2Sc3ccccc3NC2=O)CC1` (stereo unspecified), for which the RP-LC retention time was determined as 642 s.

For the compound `Cc1ccc(-c2nc(Cn3ccnc3C)no2)cc1`, the RP-LC retention time came to 634 s.

In the case of `CC(C)NC(=O)N1CCCC(c2cccc(C(=O)NCc3cccs3)c2)C1` (stereo unspecified), the RP-LC retention time was 799 s.

For the compound `CCOC(=O)N1CCC2(CC1)OC(=O)C(C)=C2C(=O)Nc1cccc(OC)c1`, the RP-LC retention time worked out at 845 s.

On to `O=C(CN1CC=C(c2cnn(-c3ccccc3)c2)CC1)Nc1ccc2c(c1)OCCO2`, for which the RP-LC retention time stood at 675 s.

Regarding `Fc1cc(CN2CCC(Cc3nnc(C4CCOCC4)o3)C2)ccc1Cl` (stereo unspecified), the RP-LC retention time stood at 603 s.

Take `O=C(NC1CCCC1)N1CCC(c2nc(C3CCOCC3)no2)CC1`: the RP-LC retention time turned out to be 691 s.

For the compound `O=C(C1=CN(c2ccccc2F)c2cc(F)ccc2S1(=O)=O)N1CCOCC1`, the RP-LC retention time amounted to 740 s.

Consider `COc1cccc(CN(C)C2CCc3nn(CC4CC4)c(=O)n3CC2)n1` (stereo unspecified), for which the RP-LC retention time was determined as 587 s.

Compound `Cc1ccc(CN2CCn3c(nn(C)c3=O)C2)cc1C` had an RP-LC retention time of 662 s.

Turning to `CC(C)Cn1cc(CCNC(=O)c2ccccc2)c2cccnc21`, the RP-LC retention time was 770 s.

For `CC(CCc1ccccc1)NC(=O)c1ccc2c(c1)CCCN2S(C)(=O)=O` (stereo unspecified), the RP-LC retention time was determined as 935 s.

`Cc1cccc(N2CCN(c3ccc4nnc(CCc5nc(-c6ccncc6)no5)n4n3)CC2)c1` had an RP-LC retention time of 846 s.

Regarding `CC(C)Oc1ccccc1CN1CCC2(CC1)CC(C)(O)CCO2` (stereo unspecified), the RP-LC retention time is 627 s.

`CCCCn1c(CN(C)C(=O)c2ccco2)nc2ccccc21` came in with an RP-LC retention time of 648 s.

Turning to `Cc1[nH]c(C(=O)N2CCC(CC(=O)N3CCCCCC3)CC2)c(C)c1C(=O)OC(C)C`, the RP-LC retention time came out at 879 s.

`CN1C(=O)c2cc(C(=O)NCc3ccccc3Cl)nn2CC1(C)C(=O)NCc1ccccc1` (stereo unspecified): the RP-LC retention time turned out to be 789 s.

In turn, `Cc1noc(-c2cccc(OC3CN(C(=O)NC(C)C)C3)c2)n1` yielded an RP-LC retention time of 760 s.

Regarding `O=C1CS(=O)C2(CCNCC2)N1Cc1cccc(F)c1` (stereo unspecified), the RP-LC retention time turned out to be 566 s.

Take `CC1=C(c2ccccc2)S(=O)(=O)N=C1N1CCN(c2ccccn2)CC1`: the RP-LC retention time amounted to 632 s.

Compound `CCN(CC)c1ccc(NC(=O)C2CCCN(S(=O)(=O)c3cn(CC)cn3)C2)c(C)c1` (stereo unspecified) showed an RP-LC retention time of 578 s.

Regarding `O=C(NC1CCN(c2cc(-c3ccccc3)[nH]n2)C1)c1ccccc1Cl` (stereo unspecified), the RP-LC retention time was 692 s.

The compound `COc1cccc(-c2ccc3nc(N4CCC(C(N)=O)CC4)sc3n2)c1` returned an RP-LC retention time of 745 s.

As to `O=C(NCc1ccco1)c1c(O)c2cccnc2n(-c2ccc(F)cc2)c1=O`, the RP-LC retention time was 1280 s.

`COCCn1nnnc1C1CC2(CCOCC2)C(=O)N1Cc1ccc(SC)cc1` (stereo unspecified) registered an RP-LC retention time of 777 s.

Compound `COc1cc(Cl)c(NS(=O)(=O)c2c(C)sc(C)c2-c2cc(C(F)(F)F)on2)c(OC)c1` displayed an RP-LC retention time of 1190 s.

On to `CCc1nc(-c2csc(S(=O)(=O)N3CCC(C(=O)Nc4ccc(Cl)cc4F)CC3)c2)no1`, for which the RP-LC retention time turned out to be 1060 s.

In turn, `Cc1cccc(-n2c(N)cc(=O)nc2SCC(=O)Nc2nc(-c3ccccc3)cs2)c1` showed an RP-LC retention time of 738 s.

In turn, `CCc1ccc(CNC(=O)C2CCCN(c3ncnc4nn(-c5ccc(C)cc5)cc34)C2)cc1` (stereo unspecified) yielded an RP-LC retention time of 787 s.

The compound `O=C(CN1C(=O)NC2(CCCCC2)C1=O)Nc1cccc(F)c1` came in with an RP-LC retention time of 633 s.

Regarding `COc1cc(NC(=O)c2cn(-c3cc(N4CCCC4)ncn3)cn2)cc(OC)c1`, the RP-LC retention time was 860 s.

Regarding `Cn1nc2n(c1=O)CCN(Cc1ccc(C(C)(C)C)cc1)C2`, the RP-LC retention time amounted to 707 s.

Regarding `COCCN1C(=O)CCc2cc(NS(=O)(=O)c3ccc(Cl)s3)ccc21`, the RP-LC retention time was 793 s.

The compound `CCOC(=O)c1nc(NCc2ccc3c(c2)OCO3)c2ccccc2n1` displayed an RP-LC retention time of 719 s.

Turning to `Cn1nc(COc2ccccc2)c2c1CCN(C(=O)c1ccccn1)C2`, the RP-LC retention time is 687 s.

As to `Cc1ccc2nc(NC(=O)CN3CCC(C(N)=O)CC3)sc2c1`, the RP-LC retention time came out at 592 s.

As to `COc1cccc(S(=O)(=O)N2CCc3nc[nH]c3C2)c1`, the RP-LC retention time came out at 602 s.

As for `O=C(c1cc(-c2ccco2)on1)N1CCC(Oc2nc3ccccc3s2)CC1`, the RP-LC retention time is 1030 s.

`O=C1COc2ccc(S(=O)(=O)N3CCCC3C(=O)Nc3cccc(Cl)c3)cc2N1` (stereo unspecified) had an RP-LC retention time of 835 s.

For `CCCOC(=O)C1=C(C)NC2=C(C(=O)C(C(=O)OC)C(C)C2)C1c1ccccc1F` (stereo unspecified), the RP-LC retention time came out at 954 s.

In the case of `CC(C)CNC(=O)c1cc(=O)[nH]c2ccccc12`, the RP-LC retention time was found to be 729 s.

Regarding `Cc1cc(C(=O)NC2CC2)c2cc(Br)ccc2n1`, the RP-LC retention time was found to be 664 s.

Turning to `CNc1nc(N2CCOCC2)nc2ccccc12`, the RP-LC retention time came to 582 s.

Consider `COc1ccc(-c2cc3c4nnc(CCC(=O)N5CCN(c6ccccn6)CC5)n4ccn3n2)cc1`, for which the RP-LC retention time amounted to 605 s.

On to `Cc1nnc(N2CCCC(C(=O)NCCCOC(C)C)C2)c2nn(-c3ccc(Cl)cc3)c(C)c12` (stereo unspecified), for which the RP-LC retention time was 714 s.

Regarding `Cc1nc(NC(=O)Cn2nc3c(cc2=O)CCCC3)sc1C`, the RP-LC retention time is 721 s.

In the case of `O=C(NC1CCCCCC1)c1nc(Cn2c(=O)oc3ccc(Cl)cc32)no1`, the RP-LC retention time stood at 1050 s.

`CCCn1c(=O)sc2cc(S(=O)(=O)N3CCC(C(=O)Nc4ccc(C)c(F)c4)CC3)ccc21` returned an RP-LC retention time of 1060 s.

`Cc1ccc(CNC(=O)c2ccc3c(c2)CCN3C(=O)C2CC2)cc1` displayed an RP-LC retention time of 824 s.

Turning to `O=C(C1CC1)N1CCN(c2nc(CN3CCCCCC3)cs2)CC1`, the RP-LC retention time amounted to 1100 s.

For the compound `Cc1sc2nc(SCC(=O)Nc3sc4c(c3C#N)CCCC4)n(C)c(=O)c2c1C`, the RP-LC retention time is 1080 s.

Compound `CCCn1cc(C(=O)Nc2cccc(OC)c2)c(=O)c2ccc(C)nc21` came in with an RP-LC retention time of 1130 s.

`Cc1cc(C(=O)N2CCC[C@H]2c2nc(-c3ccccc3)n[nH]2)nn1C` came in with an RP-LC retention time of 654 s.

The compound `COCCNC(=O)C1CCN(C(=O)c2cccn2-c2cccnc2)CC1` displayed an RP-LC retention time of 578 s.

In turn, `CCOC(=O)c1[nH]c(C)c(CCC(=O)N2CCC(C(=O)NCCN3CCCCC3)CC2)c1C` displayed an RP-LC retention time of 590 s.

Regarding `CC(C)n1c(=O)sc2cc(S(=O)(=O)N3CCC(C(=O)N4CCCC4)CC3)ccc21`, the RP-LC retention time came out at 809 s.

Compound `COc1cc(C2C(C(=O)N3CCCCC3)=C(C)NC3=C2C(=O)CC(C)(C)C3)cc(OC)c1O` (stereo unspecified) had an RP-LC retention time of 1050 s.

`CCCNC(=O)CSc1nc2nc(C)cc(C)n2n1` had an RP-LC retention time of 611 s.

Take `Cc1ccc(C)c2c(=O)c3c([nH]c12)CCN(CC(=O)Nc1ccccc1Cl)C3`: the RP-LC retention time amounted to 656 s.

The compound `O=C(CSc1nc2ccccc2o1)OCc1cc(-c2ccc3c(c2)OCCO3)on1` displayed an RP-LC retention time of 1000 s.

With `CN(Cc1ccc(OC(F)(F)F)cc1)C1CCc2nnc(C3CCOCC3)n2CC1` (stereo unspecified), the RP-LC retention time was 616 s.

Turning to `CS(=O)(=O)Nc1cccc(NC(=O)Cn2cccn2)c1`, the RP-LC retention time worked out at 970 s.

`CC(C)NC(=O)c1ccc(OCC2CCN(C(=O)Cc3cccs3)CC2)cc1` came in with an RP-LC retention time of 822 s.
